In patent US7026344B2, “Treating sickle cell disease” (priority 2000, dated 2006):
“And” between values parts separate entries of the source, which are not always exact repeats. Equal values may be shown once. Read-outs that look alike come from different tables or passages of the source.

Columns and labels:
[1] = test system: fetal hemoglobin production in normal erythroid progenitors; assay: Hemoglobin F determination in erythroid progenitors, normal donors; type: cell-based, human
Experimental: (§1) BFU-E Colony Growth. Mononuclear cells were isolated from the peripheral blood of each patient studied by density gradient centrifugation using Histapaque-1077 (Sigma). Erythroid progenitors were obtained in methylcellulose culture. ZL was added on day 0 at 25, 50, 75, or 100 μM concentrations for 13–14 days at which time the number of BFU-E colonies were counted on an inverted microscope and harvested for hemoglobin determinations.
(§2) Hemoglobin F determination. The erythroid progenitors were collected, washed in PBS then lysed at room temperature in 200 μl of water. The supernatant was split into two tubes, one for total hemoglobin determination and one for hemoglobin F determination. In brief, IgG (10 μl), 1.2 N NaOH (7 μl) and saturated (NH4)2SO4 (70 μl) were added to the hemoglobin F sample. The denatured hemoglobin was pelleted and the supernatant containing hemoglobin F was mixed with 500 μl of tetramethyl benzidine and 500 μl of H2O2 at room temperature then quantitated on a spectrophotometer at 600 nm. The percentage of fetal hemoglobin to total hemoglobin was determined.
The cytotoxic effect of HU as been proposed as a basic mechanism involved in hemoglobin F induction. […] Utilizing the same protocol, BFU-E colonies from normal donors wee analyzed in the presence of ZL at 0 to 100 μM concentrations. […]

[2] = test system: fetal hemoglobin production in primary erythroid progenitors from Hb SS patients; assay: Hemoglobin F determination in erythroid progenitors, Hb SS patients; type: cell-based, human; conditions: for fold increase in hemoglobin F: 0 versus 100 μM, Hb SS patients; for HbF Difference: 0 vs 100 μM, sickle cell patients
Experimental: as §1, §2
(§3) The capability of ZL to induce hemoglobin F in primary erythroid progenitors, grown from peripheral blood mononuclear cells (MNC) was analyzed. BFU-E colonies were grown in methylcellulose cultures supplemented with erthyopoietin and interleukin-3 and ZL at concentration from 0 to 100 μM. Three patients homozygous for hemoglobin S (Hb SS) were analyzed with triplicate experiments. The average BFU-E colony number was 123.2±18.6 without ZL compared to 10.6±2.0 at 100 μM concentrations, p<0.05 (Table 1). […] All pair-wise comparisons for BFU-E and hemoglobin F between 0μ and other concentrations (25, 50, 75 and 100 μM) were significant at p<0.05. The correlation coefficient between the number of BFU-E colonies or percent hemoglobin F and different levels of ZL is −0.90 and +0.79, respectively (p<0.05). […] (See Yang et al., BFU-E colony growth in response to hydroxyurea: correlation between in vitro and in vivo fetal hemoglobin induction. Am J Hematol. 1997; 56:252–258). […] HU either was more efficient in inhibiting BFU-E colony growth or alternatively the baseline number of colonies on an average was higher for the Hb SS patients in the HU cohort.

[3] = test system: primary erythroid progenitors (BFU-E colonies) from Hb SS patients; assay: BFU-E colony growth in methylcellulose culture, Hb SS patients; type: cell-based, human; conditions: for fold decrease in BFU-E colony number: 0 versus 100 μM, Hb SS patients; for BFU-E Difference: 0 vs 100 μM, sickle cell patients
Experimental: as §1, §3

[4] = test system: erythroid progenitors (BFU-E colonies) from normal donors; assay: BFU-E colony growth in methylcellulose culture, normal donors; type: cell-based, human
Experimental: as §1
The cytotoxic effect of HU as been proposed as a basic mechanism involved in hemoglobin F induction. In the absence of this characteristic for ZL, whether γ gene expression would be, induced in erythroid progenitors obtained from normal donors was tested. Utilizing the same protocol, BFU-E colonies from normal donors wee analyzed in the presence of ZL at 0 to 100 μM concentrations. In normal erythroid progenitors, a decrease in BFU-E colony number from 94±30.6 to 10.1±2.4 (FIG. 3A) and an increase in hemoglobin F from 1.4±0.05% to […] (FIG. 3B) was observed. This pattern was similar to that obtained for Hb SS progenitors. Of note is the lower average BFU-E colony number for hemoglobin A progenitors as compared with hemoglobin S. This probably reflects the absence of hemolysis and increased RBC production in normals as compared to sickle cell patients. This represents a 9.3-fold decrease and a 4.3-fold increase in BFU-E and hemoglobin F, respectively.

[5] = test system: primary erythroid progenitors (BFU-E colonies) from Hb SS patients; conditions: HU 100 μM, Hb SS patients of the HU cohort (Yang et al.); cited from earlier work
[6] = test system: fetal hemoglobin production in primary erythroid progenitors from Hb SS patients; conditions: HU 100 μM, Hb SS patients of the HU cohort (Yang et al.); cited from earlier work
[7] = zileuton 25 μM, mean ± SEM of three Hb SS patients
[8] = zileuton 50 μM, mean ± SEM of three Hb SS patients
[9] = zileuton 75 μM, mean ± SEM of three Hb SS patients
[10] = zileuton 100 μM, mean of three Hb SS patients
[11] = zileuton 100 μM, mean of three Hb SS patients, listed as zileuton

CC(c1cc2ccccc2s1)N(O)C(N)=O (racemic) [ZL, (±)-1-(1-Benzo[b]thien-2-ylethyl)-1-hydroxyurea]
fold increase in hemoglobin F ([1]; ZL 0 vs 100 μM): 4.3 fold
hemoglobin F ([1]; ZL 100 μM): 6.0%
fold increase in hemoglobin F [2]: 4.8 fold
HbF Difference [2]: 12.6 ± 1.1%
HbF ([2]; zileuton 25 μM, individual Hb SS patients (No. 1-3)): 3% and 4% and 11%
HbF [2, 7]: 6.2 ± 1.4%
HbF ([2]; zileuton 50 μM, individual Hb SS patients (No. 1-3)): 6% and 7% and 14%
HbF [2, 8]: 11.9 ± 1.3%
HbF ([2]; zileuton 75 μM, individual Hb SS patients (No. 1-3)): 11% (2×) and 18%
HbF [2, 9]: 13.2 ± 1.4%
HbF ([2]; zileuton 100 μM, individual Hb SS patients (No. 1-3)): 13% and 14% and 21%
HbF [2, 10]: 15.9±1.4% and 15.9%
HbF [2, 11]: 15.9 ± 1.4%
fold decrease in BFU-E colony number [3]: 11.7 fold
BFU-E Difference [3]: 112.6 ± 19.1
BFU-E ([3]; zileuton 25 μM, individual Hb SS patients (No. 1-3), colony number, 13–14 days): 137 and 61 and 91
BFU-E [3, 7]: 96.4 ± 11.1
BFU-E ([3]; zileuton 50 μM, individual Hb SS patients (No. 1-3), colony number): 62 and 47 and 72
BFU-E [3, 8]: 60.4 ± 4.3
BFU-E ([3]; zileuton 75 μM, individual Hb SS patients (No. 1-3), colony number): 23 and 27 and 43
BFU-E [3, 9]: 31.1 ± 3.2
BFU-E ([3]; zileuton 100 μM, individual Hb SS patients (No. 1-3), colony number): 13 and 12 and 7
BFU-E [3, 10]: 10.6±2.0 and 10.5
BFU-E [3, 11]: 10.5 ± 1.3
fold decrease in BFU-E ([4]; ZL 0 vs 100 μM): 9.3 fold
BFU-E colony number ([4]; ZL 100 μM): 10.1±2.4

NC(=O)NO [HU, Hydroxyurea]
fold increase in hemoglobin F [2]: 3.8 fold
HbF Difference [2]: 14.4 ± 1.5%
fold decrease in BFU-E colony number [3]: 21.3 fold
BFU-E Difference [3]: 146.4 ± 9.1
BFU-E [5]: 7.2
HbF [6]: 19.4%
